ChEMBL document CHEMBL1201862, “PubChem BioAssay data set” (2004)
Blank lines part the entries; values can stand above or below the molecule they belong to. The source made the active and inactive calls.

Tests used:
[1] = target: Voltage-dependent T-type calcium channel subunit alpha-1H (Homo sapiens, UniProt O95180); experiment: Cav3.2 T-type channel inhibitors, synthesized analogs, SAR follow-up, cell-based, synthetic library set 2, HEK293 HH8, Fluo-4 (AID 493023); assay type: functional
[2] = target: T1, E3 ubiquitin-protein ligase XIAP (Homo sapiens, UniProt P98170); experiment: Counter Screen using XIAP-Bir3 for Chemical Antagonists of Bir1/2 domains of IAP-family anti-apoptotic proteins. [Related pubchem assays (depositor defined):AID1018, AID1449, AID1514, AID1638, AID1749, AID1750, AID488957, AID488963]
T1 sequence (P98170 whole entry): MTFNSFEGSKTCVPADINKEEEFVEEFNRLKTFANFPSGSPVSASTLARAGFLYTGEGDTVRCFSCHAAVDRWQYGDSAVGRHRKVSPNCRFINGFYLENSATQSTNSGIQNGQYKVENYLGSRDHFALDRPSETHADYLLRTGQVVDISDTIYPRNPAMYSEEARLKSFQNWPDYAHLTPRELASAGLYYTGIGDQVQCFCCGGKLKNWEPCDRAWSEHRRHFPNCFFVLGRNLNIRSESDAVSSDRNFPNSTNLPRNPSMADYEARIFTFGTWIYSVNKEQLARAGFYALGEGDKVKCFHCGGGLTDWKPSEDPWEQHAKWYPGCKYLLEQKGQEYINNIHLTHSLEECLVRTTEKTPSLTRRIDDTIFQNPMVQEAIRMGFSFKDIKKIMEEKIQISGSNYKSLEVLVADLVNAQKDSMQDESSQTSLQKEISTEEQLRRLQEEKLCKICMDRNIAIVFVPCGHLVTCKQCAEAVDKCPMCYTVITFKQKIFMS

[3] = target: T1, E3 ubiquitin-protein ligase XIAP; experiment: XIAP antagonists, biochemical, IAP family, fluorescence polarization (AID 1018); assay type: functional
[4] = target: Cytochrome P450 2D6 (Homo sapiens, UniProt P10635);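 note: CYP2D6 member of a cytochrome P450 panel assay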
Chain of Cytochrome P450 2D6 (P10635 whole entry): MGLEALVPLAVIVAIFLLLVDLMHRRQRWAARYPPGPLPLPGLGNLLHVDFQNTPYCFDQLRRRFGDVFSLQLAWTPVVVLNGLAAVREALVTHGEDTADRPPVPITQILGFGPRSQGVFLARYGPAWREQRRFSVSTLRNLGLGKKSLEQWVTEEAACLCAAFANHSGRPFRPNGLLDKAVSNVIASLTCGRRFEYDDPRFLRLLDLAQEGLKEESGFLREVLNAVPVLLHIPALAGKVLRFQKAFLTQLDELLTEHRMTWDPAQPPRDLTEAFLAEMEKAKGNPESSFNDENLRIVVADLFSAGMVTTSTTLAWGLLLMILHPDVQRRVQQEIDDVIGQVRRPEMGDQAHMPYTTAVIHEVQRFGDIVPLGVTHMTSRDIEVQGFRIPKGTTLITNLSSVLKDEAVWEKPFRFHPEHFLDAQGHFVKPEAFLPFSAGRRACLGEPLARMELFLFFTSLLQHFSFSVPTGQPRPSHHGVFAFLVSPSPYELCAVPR

[5] = target: T2, Cannabinoid receptor 1 (Homo sapiens, UniProt P21554); experiment: SAR analysis of antagonists of the Cannabinoid Receptor 1 using an Image-Based Assay - Set 4. [Related pubchem assays (depositor defined):AID2013, AID2026]; assay type: functional
T2 sequence (P21554 whole entry): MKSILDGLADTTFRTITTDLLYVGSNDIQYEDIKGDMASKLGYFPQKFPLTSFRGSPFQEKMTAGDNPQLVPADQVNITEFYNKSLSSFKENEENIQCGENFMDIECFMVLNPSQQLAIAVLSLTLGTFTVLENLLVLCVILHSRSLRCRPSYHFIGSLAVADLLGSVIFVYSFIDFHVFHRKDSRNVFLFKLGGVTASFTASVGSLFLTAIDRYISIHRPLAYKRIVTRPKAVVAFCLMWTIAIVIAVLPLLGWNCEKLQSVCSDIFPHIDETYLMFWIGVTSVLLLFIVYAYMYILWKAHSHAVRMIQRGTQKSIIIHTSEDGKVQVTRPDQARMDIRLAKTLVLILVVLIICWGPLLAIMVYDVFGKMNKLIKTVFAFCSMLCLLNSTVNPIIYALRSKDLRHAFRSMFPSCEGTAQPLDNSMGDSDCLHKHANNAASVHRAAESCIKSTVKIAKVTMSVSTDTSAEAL

[6] = target: T3, G-protein coupled receptor 35 (Homo sapiens, UniProt Q9HC97); experiment: SAR analysis of Antagonists of the GPR35 Receptor using an Image-Based Assay - Set 6. [Related pubchem assays (depositor defined):AID2013, AID2026]; assay type: functional
T3 sequence (Q9HC97 whole entry): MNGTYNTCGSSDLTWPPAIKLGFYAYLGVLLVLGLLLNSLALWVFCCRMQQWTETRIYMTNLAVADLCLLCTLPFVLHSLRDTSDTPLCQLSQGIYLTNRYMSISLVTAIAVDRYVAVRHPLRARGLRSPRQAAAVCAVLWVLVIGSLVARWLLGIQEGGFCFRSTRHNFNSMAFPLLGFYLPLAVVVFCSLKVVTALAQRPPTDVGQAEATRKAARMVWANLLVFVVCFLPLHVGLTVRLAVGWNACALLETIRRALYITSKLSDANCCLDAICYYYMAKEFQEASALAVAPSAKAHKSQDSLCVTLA

[7] = target: T3, G-protein coupled receptor 35; experiment: SAR analysis of Agonists of the GPR35 Receptor using an Image-Based Assay - Set 4. [Related pubchem assays (depositor defined):AID2013, AID2026]; assay type: functional
[8] = target: T2, Cannabinoid receptor 1; experiment: SAR analysis of agonists of the Cannabinoid Receptor 1 using an Image-Based Assay - Set 4. [Related pubchem assays (depositor defined):AID2013, AID2026]; assay type: functional
[9] = target: T4, Cannabinoid receptor 2 (Homo sapiens, UniProt P34972); experiment: SAR analysis of antagonists of the Cannabinoid Receptor 2 using an Image-Based Assay - Set 3. [Related pubchem assays (depositor defined):AID2013, AID2026]; assay type: functional
T4 sequence (P34972 whole entry): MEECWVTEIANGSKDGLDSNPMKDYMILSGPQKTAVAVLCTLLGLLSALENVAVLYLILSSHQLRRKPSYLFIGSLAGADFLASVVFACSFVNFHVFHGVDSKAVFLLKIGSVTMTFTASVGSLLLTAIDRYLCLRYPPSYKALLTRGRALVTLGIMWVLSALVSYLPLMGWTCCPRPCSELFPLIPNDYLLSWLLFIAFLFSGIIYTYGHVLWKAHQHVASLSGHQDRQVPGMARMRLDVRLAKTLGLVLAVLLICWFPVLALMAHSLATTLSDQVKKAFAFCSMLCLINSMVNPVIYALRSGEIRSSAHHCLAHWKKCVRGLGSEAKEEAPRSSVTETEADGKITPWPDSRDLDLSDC

[10] = target: G-protein coupled receptor 55 (Homo sapiens, UniProt Q9Y2T6); experiment: SAR Analysis of Selective Antagonists of GPR55 using an Image-Based Assay - Set 4. [Related pubchem assays (depositor defined):AID2013, AID2026]; assay type: functional;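 note: antagonism of response to 5 µM lysophosphatidylinositol agonist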
Chain of G-protein coupled receptor 55 (Q9Y2T6 whole entry): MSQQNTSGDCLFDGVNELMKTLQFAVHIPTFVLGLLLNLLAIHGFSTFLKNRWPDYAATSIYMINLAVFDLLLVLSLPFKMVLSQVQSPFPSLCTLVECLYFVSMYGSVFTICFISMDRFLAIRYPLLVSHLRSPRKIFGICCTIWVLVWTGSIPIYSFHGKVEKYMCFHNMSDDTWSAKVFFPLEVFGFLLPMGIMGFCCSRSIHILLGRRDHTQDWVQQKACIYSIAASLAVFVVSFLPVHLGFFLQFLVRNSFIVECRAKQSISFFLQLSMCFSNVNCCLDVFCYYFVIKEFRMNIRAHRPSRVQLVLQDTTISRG

[11] = target: Cytochrome P450 2C19 (Homo sapiens, UniProt P33261); experiment: Cytochrome panel assay with activity outcomes. Panel member name: p450-cyp2c19 Compounds with AC50 equal or less than 10 uM are considered active; assay type: functional; details: read-out: AC50
[12] = target: T4, Cannabinoid receptor 2; experiment: SAR analysis of agonists of the Cannabinoid Receptor 2 using an Image-Based Assay - Set 3. [Related pubchem assays (depositor defined):AID2013, AID2026]; assay type: functional
[13] = target: Mu-type opioid receptor (Homo sapiens, UniProt P35372); experiment: SAR Analysis of Antagonists of the MOR Receptor using an Image-Based Assay - Set 3. [Related pubchem assays (depositor defined):AID1777, AID1785, AID1786, AID1966, AID2133, AID2136, AID2284, AID2285, AID2420]; assay type: functional
[14] = target: T5, Kappa-type opioid receptor (Homo sapiens, UniProt P41145); experiment: SAR analysis of small molecule antagonists of the kappa opioid receptor via a luminescent beta-arrestin assay - Set 6. [Related pubchem assays (depositor defined):AID1777, AID1778, AID1785, AID1786, AID1966, AID2133, AID2136, AID2285]; assay type: functional
T5 sequence (P41145 whole entry): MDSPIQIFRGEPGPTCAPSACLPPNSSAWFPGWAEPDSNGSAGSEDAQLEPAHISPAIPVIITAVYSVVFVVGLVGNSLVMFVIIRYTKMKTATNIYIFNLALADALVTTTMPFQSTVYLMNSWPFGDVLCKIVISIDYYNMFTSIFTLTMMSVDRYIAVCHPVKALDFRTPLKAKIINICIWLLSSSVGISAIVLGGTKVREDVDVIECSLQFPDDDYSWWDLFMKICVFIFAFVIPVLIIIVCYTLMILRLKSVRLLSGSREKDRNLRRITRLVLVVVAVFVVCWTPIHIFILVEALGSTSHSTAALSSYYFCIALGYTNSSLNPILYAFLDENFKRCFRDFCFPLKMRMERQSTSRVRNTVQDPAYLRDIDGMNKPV

[15] = target: T5, Kappa-type opioid receptor; experiment: SAR analysis of Antagonists of the Kappa Opioid Receptor (KOR) using an Image-Based Assay - Set 4. [Related pubchem assays (depositor defined):AID1777, AID1785]; assay type: functional
[16] = target: T5, Kappa-type opioid receptor; experiment: SAR analysis of small molecule antagonists of the kappa opioid receptor via a luminescent beta-arrestin assay - Set 3. [Related pubchem assays (depositor defined):AID1777, AID1778, AID1785, AID1786, AID1966, AID2133, AID2136, AID2285, AID2495]; assay type: functional
[17] = target: Delta-type opioid receptor (Homo sapiens, UniProt P41143); experiment: SAR Analysis of Antagonists of the DOR Receptor using an Image-Based Assay - Set 3. [Related pubchem assays (depositor defined):AID1777, AID1785]; assay type: functional;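 note: U2OS cells expressing DOR1 and beta-arrestin GFP stimulated with 100 nM SNC80; imaging of GFP-tagged beta-arrestin moving into spots after receptor activation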
Chain of Delta-type opioid receptor (P41143 whole entry): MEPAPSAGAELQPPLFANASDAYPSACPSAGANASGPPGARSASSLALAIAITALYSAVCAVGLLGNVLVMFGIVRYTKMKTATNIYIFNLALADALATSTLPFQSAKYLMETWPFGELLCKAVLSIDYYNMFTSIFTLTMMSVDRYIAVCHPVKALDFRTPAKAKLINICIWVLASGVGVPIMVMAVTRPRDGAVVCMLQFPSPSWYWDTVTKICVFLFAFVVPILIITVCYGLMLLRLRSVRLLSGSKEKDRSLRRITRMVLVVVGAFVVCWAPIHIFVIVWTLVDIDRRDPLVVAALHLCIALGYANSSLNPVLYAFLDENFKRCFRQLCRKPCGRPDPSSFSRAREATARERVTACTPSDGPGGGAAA

[18] = target: SUMO-activating enzyme (Homo sapiens, UniProt Q9UBT2); experiment: SUMOylation inhibitor hit validation, confirmation, SUMOylation inhibitor project, biochemical, AlphaScreen (AID 2018); assay type: functional
[19] = target: T6, Runt-related transcription factor 1/Core-binding factor subunit beta (Homo sapiens, UniProt Q01196+Q13951); experiment: inhibitors of RUNX1 Runt–CBFb-SMMHC binding, biochemical, TR-FRET (AID 1438); assay type: protein assay
T6 sequence (Q01196 whole entry): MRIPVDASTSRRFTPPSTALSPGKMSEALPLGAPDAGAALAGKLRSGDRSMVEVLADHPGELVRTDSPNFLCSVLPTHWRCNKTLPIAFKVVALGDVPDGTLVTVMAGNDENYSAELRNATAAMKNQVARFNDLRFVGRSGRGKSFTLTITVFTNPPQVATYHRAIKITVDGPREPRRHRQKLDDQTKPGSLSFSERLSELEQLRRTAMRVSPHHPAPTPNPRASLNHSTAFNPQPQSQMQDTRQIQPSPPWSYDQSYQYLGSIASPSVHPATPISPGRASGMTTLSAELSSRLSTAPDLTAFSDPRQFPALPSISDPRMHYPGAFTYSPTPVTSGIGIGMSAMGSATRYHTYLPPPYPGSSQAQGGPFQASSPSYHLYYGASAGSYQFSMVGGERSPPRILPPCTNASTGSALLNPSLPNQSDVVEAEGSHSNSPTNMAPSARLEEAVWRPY
T6 sequence (Q13951 whole entry): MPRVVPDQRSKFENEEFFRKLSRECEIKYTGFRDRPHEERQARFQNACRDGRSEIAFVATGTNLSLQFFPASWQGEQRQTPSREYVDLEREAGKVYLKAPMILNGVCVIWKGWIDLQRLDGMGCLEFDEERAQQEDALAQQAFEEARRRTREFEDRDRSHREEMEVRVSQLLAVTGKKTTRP

[20] = target: Beta Lactamase (Pseudomonas aeruginosa, UniProt Q932Y6); experiment: beta-lactamase reporter inhibitor potency, dose response, artefact control for TLR9-MyD88 binding inhibitor project, BLA reporter cells, FRET fluorescence (AID 588341); assay type: cell-based;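 note: cell based assay in CHO-K1 cells stably expressing beta-lactamase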
[21] = target: T6, Runt-related transcription factor 1/Core-binding factor subunit beta; experiment: inhibitors of RUNX1 Runt–CBFb-SMMHC binding, primary screen, biochemical, FRET, Cerulean-Runt, Venus-CBFb-SMMHC, uHTS (AID 1434); assay type: protein assay;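 note: partner is the CBFb-SMMHC leukemia fusion protein rather than wild-type CBFb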
[22] = target: Kallikrein-7 (Homo sapiens, UniProt P49862); experiment: Fluorescence Intensity-based biochemical primary high throughput dose response assay to identify activators of kallikrein-7 (K7) zymogen.
[23] = growth suppression of PTEN-null colon cells, dose response, cell-based, HCT116 PTEN knockout (AID 1047); assay type: functional;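 note: HCT116 colon tumor cells with PTEN knocked out; cells exposed to compound for 60 hours before readout; potency for loss of cell viability measured by luminescence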
[24] = target: T7, Microphthalmia-associated transcription factor (Homo sapiens, UniProt O75030); experiment: TRPM1 promoter luciferase signal decrease, dose response, MITF inhibitor project, cell-based, SK-MEL-5, cherry-picked, set 3 (AID 493073); assay type: functional
T7 sequence (O75030 whole entry): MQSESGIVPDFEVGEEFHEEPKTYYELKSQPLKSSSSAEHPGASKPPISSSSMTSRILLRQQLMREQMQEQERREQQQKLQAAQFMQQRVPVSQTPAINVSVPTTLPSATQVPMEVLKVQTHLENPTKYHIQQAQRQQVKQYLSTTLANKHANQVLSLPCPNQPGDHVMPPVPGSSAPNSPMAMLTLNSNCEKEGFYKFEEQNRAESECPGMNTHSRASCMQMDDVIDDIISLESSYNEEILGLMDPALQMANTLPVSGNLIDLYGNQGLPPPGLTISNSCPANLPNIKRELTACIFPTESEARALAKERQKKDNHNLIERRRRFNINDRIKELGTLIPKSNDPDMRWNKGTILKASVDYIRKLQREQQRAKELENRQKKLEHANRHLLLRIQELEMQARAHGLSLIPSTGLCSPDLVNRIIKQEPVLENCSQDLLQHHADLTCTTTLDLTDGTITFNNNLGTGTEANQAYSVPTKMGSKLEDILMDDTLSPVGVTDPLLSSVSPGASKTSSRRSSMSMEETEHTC

[25] = growth suppression of beta-catenin-knockout colon cells, dose response, cell-based, HCT116, human colon tumor (AID 1045); assay type: functional;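 note: HCT116 colon tumor cells with beta catenin knocked out; cells exposed to compound for 60 hours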
[26] = test system: CHO; experiment: cytotoxicity in TLR9-MyD88 CHO cells, dose response, cytotoxicity control for TLR9-MyD88 binding inhibitor project, cell-based, luminescence (AID 588339); assay type: functional, hamster; details: Cricetulus griseus;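 note: CHO cells stably coexpressing TLR9 and MyD88 fusions from primary screen; compound exposure lasted 48 hours before viability readout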
[27] = target: T8, Type-1 angiotensin II receptor (Homo sapiens, UniProt P30556); experiment: AT1 receptor agonists, dose response, selectivity assay for APJ receptor agonist project, cell-based, uHTS hits (AID 488865); assay type: functional;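 note: beta-arrestin recruitment to AT1 measured by enzyme fragment complementation luminescence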
T8 sequence (P30556 whole entry): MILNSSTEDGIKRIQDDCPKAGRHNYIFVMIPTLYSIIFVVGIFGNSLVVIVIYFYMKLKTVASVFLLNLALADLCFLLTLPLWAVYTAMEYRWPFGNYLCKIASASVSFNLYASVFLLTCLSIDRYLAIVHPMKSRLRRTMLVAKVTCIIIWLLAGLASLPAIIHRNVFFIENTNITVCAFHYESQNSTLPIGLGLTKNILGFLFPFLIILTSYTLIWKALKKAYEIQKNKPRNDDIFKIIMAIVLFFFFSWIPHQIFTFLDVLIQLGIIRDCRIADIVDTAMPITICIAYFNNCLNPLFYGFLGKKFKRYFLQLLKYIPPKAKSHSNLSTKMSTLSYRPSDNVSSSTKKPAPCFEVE

[28] = target: Mitogen-activated protein kinase 10 (Homo sapiens, UniProt P53779); experiment: Dose response biochemical screening assay for inhibitors of c-Jun N-Terminal Kinase 3 (JNK3). [Related pubchem assays: 746 ]
Chain of Mitogen-activated protein kinase 10 (P53779 whole entry): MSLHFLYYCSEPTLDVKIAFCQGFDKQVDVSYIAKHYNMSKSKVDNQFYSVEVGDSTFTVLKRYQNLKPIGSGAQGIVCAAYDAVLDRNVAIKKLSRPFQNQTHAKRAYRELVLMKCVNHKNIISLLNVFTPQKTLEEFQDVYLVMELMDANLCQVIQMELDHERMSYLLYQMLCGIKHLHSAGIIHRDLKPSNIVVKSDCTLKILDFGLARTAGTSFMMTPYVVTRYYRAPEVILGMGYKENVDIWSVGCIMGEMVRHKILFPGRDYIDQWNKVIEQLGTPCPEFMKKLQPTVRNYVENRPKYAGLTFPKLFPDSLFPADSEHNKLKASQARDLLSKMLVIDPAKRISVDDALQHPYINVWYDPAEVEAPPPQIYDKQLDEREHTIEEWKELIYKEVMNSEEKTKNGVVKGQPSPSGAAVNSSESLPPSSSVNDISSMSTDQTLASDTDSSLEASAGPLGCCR

[29] = target: Lysosomal acid glucosylceramidase (Homo sapiens, UniProt P04062); experiment: Dose response cell-based high throughput screening assay to identify enhancers of beta-glucosidase activity. [Related pubchem assays: 784 ]; assay type: functional
Chain of Lysosomal acid glucosylceramidase (P04062 whole entry): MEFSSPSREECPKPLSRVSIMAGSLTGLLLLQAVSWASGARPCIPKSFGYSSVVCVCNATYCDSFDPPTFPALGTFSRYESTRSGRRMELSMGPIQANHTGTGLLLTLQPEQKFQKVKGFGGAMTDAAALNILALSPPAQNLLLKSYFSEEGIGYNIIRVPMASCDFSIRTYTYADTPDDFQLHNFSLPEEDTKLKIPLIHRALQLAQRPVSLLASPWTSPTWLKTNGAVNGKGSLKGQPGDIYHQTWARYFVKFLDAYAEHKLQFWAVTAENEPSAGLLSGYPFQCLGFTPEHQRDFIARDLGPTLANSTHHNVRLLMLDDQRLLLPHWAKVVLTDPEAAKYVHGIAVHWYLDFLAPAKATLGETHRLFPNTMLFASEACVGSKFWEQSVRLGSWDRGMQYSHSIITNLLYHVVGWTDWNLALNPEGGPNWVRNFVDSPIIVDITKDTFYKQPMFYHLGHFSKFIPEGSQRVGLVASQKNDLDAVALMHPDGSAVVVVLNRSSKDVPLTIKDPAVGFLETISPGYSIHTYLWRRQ

[30] = target: T9, Coagulation factor XII (Homo sapiens, UniProt P00748); experiment: Factor XIIa Dose Response Confirmation from Single Well HTS. [Related pubchem assays (depositor defined):AID701]; assay type: functional
T9 sequence (P00748 whole entry): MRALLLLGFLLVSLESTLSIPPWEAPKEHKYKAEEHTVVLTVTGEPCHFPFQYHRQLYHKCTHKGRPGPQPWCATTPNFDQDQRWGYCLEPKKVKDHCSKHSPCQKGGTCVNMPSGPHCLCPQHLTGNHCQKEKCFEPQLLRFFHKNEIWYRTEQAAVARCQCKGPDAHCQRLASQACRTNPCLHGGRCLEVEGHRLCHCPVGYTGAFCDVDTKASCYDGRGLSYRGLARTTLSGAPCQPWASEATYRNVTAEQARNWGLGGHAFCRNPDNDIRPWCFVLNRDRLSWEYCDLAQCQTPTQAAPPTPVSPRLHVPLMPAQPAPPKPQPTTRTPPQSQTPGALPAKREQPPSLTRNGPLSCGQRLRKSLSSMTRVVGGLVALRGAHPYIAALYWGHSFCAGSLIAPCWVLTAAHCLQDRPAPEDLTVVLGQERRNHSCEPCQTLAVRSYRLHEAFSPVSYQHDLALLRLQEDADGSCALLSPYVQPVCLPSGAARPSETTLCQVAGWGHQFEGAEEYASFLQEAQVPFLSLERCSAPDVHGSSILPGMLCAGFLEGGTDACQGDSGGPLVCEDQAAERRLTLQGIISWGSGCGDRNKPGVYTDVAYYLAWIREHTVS

- EC50 [1]: 10 µM (active)
Structure (SMILES): O=C(COc1ccc(F)cc1Cl)N[C@H]1CCCN(Cc2ccccc2)C1

- IC50 [2]: > 100 µM (inactive)
- IC50 [3]: > 100 µM (not active)
Structure (SMILES): Cc1ccc(-c2cc(C(=O)NC3=NCCS3)c3ccccc3n2)cc1C

- AC50 [4]: 3.55 µM (inconclusive)
- IC50 [5]: > 32 µM (inactive)
- IC50 [6]: > 32 µM (inactive)
- EC50 [7]: > 32 µM (inactive)
- EC50 [8]: > 32 µM (inactive)
- IC50 [9]: > 32 µM (inactive)
- IC50 [10]: > 32 µM (inactive)
- AC50 [11]: 11.2 µM (inconclusive)
- EC50 [12]: > 32 µM (inactive)
Structure (SMILES): N=c1c(C(=O)NC2CCCC2)cc2c(=O)n3ccccc3nc2n1C1CCCC1

- IC50 [13]: 17.2 µM (inactive)
- IC50 [14]: 0.482 µM (active)
- IC50 [15]: 0.0451 µM (active)
- IC50 [16]: 0.369 µM (active)
- IC50 [17]: > 32 µM (inactive)
Structure (SMILES): Cc1ccnc2c1n1cccc1c(=O)n2CC(=O)NCCCN1CCN(c2ccc3c(c2)OCO3)CC1

- IC50 [18]: 9.8 µM (active)
Structure (SMILES): COc1ccc(NC2=NC(=O)/C(=C\c3ccco3)S2)cc1

Structure (SMILES): OCCNc1c2ccccc2nc2c(F)c(F)c(F)c(F)c12
- IC50 [19]: > 100 µM (inactive)
- IC50 [20]: 2.27 µM (active)
- IC50 [21]: 38.7 µM (active)
- EC50 [22]: > 69.5 µM (inactive)
- EC50 [23]: 3.83 µM (active)
- AC50 [24]: 4.14 µM (active)
- EC50 [25]: 2.16 µM (active)
- IC50 [26]: 3.97 µM (active)

- EC50 [27]: > 100 µM (inactive)
Structure (SMILES): CCSc1nc(O)c(CC)c(=O)n1C(C)CC (stereo not given)

- IC50 [28]: 19.2 µM (not active)
- EC50 [29]: > 10 µM (not active)
- IC50 [30]: 2.6 µM (active)
Structure (SMILES): COc1ccc(C(=O)n2nc(-c3ccccc3)nc2N)cc1OC
